Test results reported in patent US12234257B2, “Triterpene saponin derivative and use thereof” (KOREA INSTITUTE OF SCIENCE AND TECHNOLOGY, priority 2020, dated 2025).

Test system: autophagy-related protein markers (LC3-II, p62, p-AMPK, p-Erk, p-ULK, p-mTOR) in SH-SY5Y cells
Experiment: Western blot of autophagy-related protein markers in SH-SY5Y cells
Assay type: cell-based, human
Experimental: Human neuroblastoma (SH-SY5Y) cells were purchased from the American Type Culture Collection (Manassas, Va., USA) and cultured in DMEM supplemented with 10% heat-inactivated FBS and 1% penicillin/streptomycin. The SH-SY5Y cells were cultured at 37° C. in a humid atmosphere containing 5% CO2. […] The SH-SY5Y cells were transfected with AMPK siRNA and then administered with AKNS-2 at 36 hours after siRNA transfection. […] After 24 hours from treatment with the samples, the SH-SY5Y cells were recovered and used for subsequent analysis. At 24 hours after drug treatment, the culture medium was removed from the 6-well plate, and the cells were gently washed once with cold saline. Subsequently, 1 mL of cold saline was added to each well, and cells attached to the bottom were floated by rubbing the bottom with a 1 mL pipette. The suspension was collected in a 1.5 mL tube and centrifuged at 4° C. at 13000×g for 5 minutes. After removing a supernatant, 50 μL of a RIPA lysis buffer including a protease inhibitor cocktail (Roche, Mannheim, Germany) and purchased from Cell Signaling Technology (Danvers, Mass., USA) was added to the cell pellet. After shaking the mixture at 4° C. for 30 minutes, the obtained cells were centrifuged at 4° C. at 13000×g for 20 minutes. A supernatant was collected therefrom, and a concentration of proteins was measured using a standard curve constructed using BSA by the Bradford method. Then, the supernatant was diluted with a loading buffer and heated at 99° C. for 5 minutes. Resultant cells were used in a subsequent western blot analysis. Protein markers contained in lysates of the SH-SY5Y cells and brain tissue of the mice (SNpc and ST) were measured by western blot analysis. Briefly, after determining a concentration, a protein sample (20 μg) was separated by 8%, 10%, or 15% sodium dodecyl sulfate-polyacrylamide gel electrophoresis (SDS-PAGE). Then, proteins separated on the gel were transferred to a polyvinylidene fluoride (PVDF) membrane for 45 minutes using a Trans-Blot Turbo Transfer System (Bio-Rad, USA). […] The membrane was further incubated with monoclonal primary antibodies derived from rabbits (anti-GAPDH, anti-AMPK, anti-p-AMPK, anti-ULK, anti-p-ULK555, anti-Erk, anti-p-Erk, anti-mTOR, anti-p-mTOR, anti-LC3B, anti-TH, and anti-α-synuclein antibodies). The primary antibodies were diluted in a blocking buffer at a ratio of 1:1000 and incubated overnight at 4° C. On the second day, the membrane was washed with TBST three times (10 minutes each) and incubated at room temperature in a horseradish peroxidase-conjugated goat anti-rabbit IgG secondary antibody (diluted in a blocking buffer at a ratio of 1:2000). After incubating in the secondary antibody for 1 hour, the membrane was washed for 30 minutes. The protein blots on the membrane were developed using an ECL detection kit and visualized using an LAS-4000 mini system (Fujifilm, Japan). The intensity of the protein blots was quantified using Multi Gauge software (Fujifilm, Japan).

[1] = AKNS-2 5 μM and 10 μM, vs control

C[C@@H]1O[C@@H](O[C@@H]2[C@@H](O)[C@H](O[C@@H]3[C@@H](O[C@@H]4OC[C@@H](O)[C@H](O)[C@H]4O)[C@@H](O)[C@H](O[C@H]4[C@H](OC(=O)[C@]56CCC(C)(C)C[C@H]5C5=CC[C@@H]7[C@@]8(C)C[C@H](O)[C@H](O[C@@H]9O[C@H](CO)[C@@H](O)[C@H](O[C@@H]%10OC[C@@H](O)[C@H](O)[C@H]%10O)[C@H]9O)[C@@](C)(CO)[C@@H]8CC[C@@]7(C)[C@]5(C)C[C@H]6O)OC[C@H](O)[C@@H]4O)O[C@H]3C)OC[C@H]2O)[C@H](O)[C@H](O)[C@H]1O [Compound 1, 3-O-β-D-xylopyranosyl-(1→3)-β-D-glucopyranosylpolygalacic acid 28-O-α-L-rhamnopyranosyl-(1→3)-β-D-xylopyranosyl-(1→4)-[β-D-xylopyranosyl-(1→3)]-α-L-rhamnopyranosyl-(1→2)-α-L-arabinopyranosyl ester]
expression level of p-Erk (24 hours, 10 μM and 20 μM): the expression level of p-Erk significantly increased | expression of p-mTOR (24 hours, 10 μM and 20 μM): The expression of p-mTOR was inhibited | expression level of p-AMPK (24 hours, 5, 10 and 20 μM): the expression levels of p-AMPK and p-ULK significantly increased | expression level of p-ULK (24 hours, 5, 10 and 20 μM): the expression levels of p-AMPK and p-ULK significantly increased | expression of LC3-II (24 hours, 5, 10 and 20 μM): induced the expression of LC3-II, which is an important autophagy marker, in a dose-dependent manner | expression level of LC3-II (AKNS-2 5 μM and 10 μM, 24 hours, vs control): The expression level of LC3-II was significantly increased | expression level of p-Erk [1]: significantly increased expression levels of p-Erk | expression of p-AMPK [1]: Significantly increased expression | expression of p-ULK555 [1]: significantly increased expression of p-ULK555 | expression level of LC3-II (AKNS-2 10 μM alone): significantly increased the expression level of LC3-II | expression of p62 (AKNS-2 10 μM alone): induced a significant decrease in expression of p62 | expression of p-mTOR (AKNS-2 10 μM, vs control): significantly inhibited the expression p-mTOR | expression of p-mTOR (AKNS-2 (5 μM and 10 μM), AMPK siRNA experiment, normal cells): significantly inhibited the expression of p-mTOR
